In brackets after ≈: the same amount, converted by molar mass. Several values for one entry are separate records, joined by “and”; a condition that tells them apart may be missing. Identical values can stand only once. Like-named read-outs stand apart in the source and are kept apart here. Each block holds one compound with its values, some of them ahead of it.
What was measured:
[1] = test system: Cal-27 oral squamous cell carcinoma cell line; experiment: MTT anti-proliferation assay in Cal-27; assay type: cell-based; settings: for IC50 anti-proliferation activity: Cal-27, MTT, triplicate; for IC50: Homo sapiens, read-out: IC50 anti-proliferation activity
[2] = test system: SCC-9 oral squamous cell carcinoma cell line; experiment: MTT anti-proliferation assay in SCC-9; assay type: cell-based; settings: for IC50 anti-proliferation activity: SCC-9, MTT, treatment period 72 hr, triplicate; for IC50: Homo sapiens, SCC-9, 72 h, read-out: IC50 anti-proliferation activity
in vivo = settings: C57BL/6, mouse, iv, 5 mg/kg
[3] = Caco-2 monolayer apical to basolateral transport; assay type: in vitro ADME; settings: human, Caco-2, pH 7.4
[4] = mouse, in vivo, iv
[5] = Oral pharmacokinetics of ME in corn oil in mice
[6] = Oral pharmacokinetics of ME nanosuspension in mice; settings: for absolute bioavailability (estimated): oral 60 mg/kg ME nanosuspension vs I.V. 5 mg/kg
[7] = test system: CYP450 (mouse intestinal S9 fraction); experiment: Phase I CYP metabolism of MHNK to HNK in mouse intestinal S9 fraction; assay type: in vitro ADME, C57BL/6 mouse; settings: MHNK 5, 1 and 0.5 µM, 60 min
[8] = I.V. pharmacokinetics of ME nanosuspension in mice
[9] = test system: CYP450 (mouse liver microsomes); experiment: Phase I CYP metabolism of MHNK to HNK in mouse liver microsomes; assay type: in vitro ADME, C57BL/6 mouse; settings: 0.5 µM MHNK, after 60 min, 37 °C
Caco-2 cell monolayer = experiment: Caco-2 monolayer apical to basolateral transport; assay type: in vitro ADME; settings: ME 0.05 mg/mL in HBSS pH 7.4, 37 °C, n=3
[10] = oral 60 mg ME/kg in corn oil, mouse whole blood, n=5
[11] = oral 60 mg ME/kg in corn oil, n=5
[12] = oral 60 mg ME/kg in nanosuspension, mouse whole blood, n=5
[13] = oral 60 mg ME/kg in nanosuspension, n=5
[14] = I.V. 5 mg ME/kg, mouse whole blood, n=5
[15] = C57BL/6, mouse, in vivo, po, 60 mg/kg
[16] = C57BL/6, mouse, in vivo, iv, 5 mg/kg

Compound: O=c1[nH]cc(F)c(=O)[nH]1 [5-FU, reference compound]
IC50 anti-proliferation activity ([1]; treatment period 72 hr): 0.4 ± 0.1 µg/mL (≈ 3.08 µM)
IC50 anti-proliferation activity [2]: 1.9 ± 0.4 µg/mL (≈ 14.6 µM)

Compound: C=CCc1ccc(O)c(-c2ccc(OC)c(CC=C)c2)c1 [MHNK, 4-O-methylhonokiol]
IC50 anti-proliferation activity ([1]; treatment period 24 hr): 14.5 ± 0.9 µg/mL (≈ 51.7 µM)
IC50 anti-proliferation activity ([1]; treatment period 48 hr): 7.7 ± 0.8 µg/mL (≈ 27.5 µM)
IC50 anti-proliferation activity ([1]; treatment period 72 hr): 5.6 ± 1.4 µg/mL (≈ 20 µM)
IC50 anti-proliferation activity ([1]; treatment period 96 hr): 3.2 ± 0.3 µg/mL (≈ 11.4 µM)
AUC0–24 [5, 10]: 9.6 ± 4.0 ng·h/mL
AUC0−∞ [5, 10]: 10.8 ± 3.0 ng·h/mL
Cmax [5, 10]: 3.7 ± 0.9 ng/mL
Tmax [5, 10]: 1.3 ± 0.6 h
Half-life [5, 11]: 1.4 ± 0.6 h
MRT0–24 [5, 11]: 1.8 ± 0.3 h
AUC0–24 [6, 12]: 79.9 ± 15.8 ^* hr*ng/mL
AUC0−∞ [6, 12]: 86.3 ± 15.7 ^* hr*ng/mL
Cmax [6, 12]: 14.3 ± 6.6 ng/mL
Tmax [6, 12]: 3.0 ± 2.0 h
Half-life [6, 13]: 7.1 ± 2.5 h
MRT0–24 [6, 13]: 5.9 ± 0.7 h
absolute bioavailability (estimated) [6]: 1.1% and < 2%
IC50 anti-proliferation activity [2]: 5.2 ± 1.3 µg/mL (≈ 18.5 µM)
HNK formation from MHNK [7]: no HNK detected
AUC0–24 [8, 14]: 623.2 ± 358.8 ng·h/mL
AUC0−∞ [8, 14]: 631.1 ± 360.0 ng·h/mL
Cmax [8, 14]: 824.3 ± 309.5 ng/mL
Half-life [8, 14]: 3 h and 2.9 ± 2.1 h
CL ([8]; I.V. 5 mg ME/kg, n=5): 33.3 ± 26.7 mL/min/kg
MRT0–24 ([8]; I.V. 5 mg ME/kg, n=5): 1.5 ± 0.6 h
V ([8]; I.V. 5 mg ME/kg, n=5): 5.5 ± 1.7 L/kg
MHNK metabolized to HNK [9]: 51 ± 23.9%
apical to basolateral permeability (Pab) (Caco-2 cell monolayer): 7.7 ± 0.4 × 10^−6 cm/sec

Compound: C=CCc1ccc(O)c(-c2cc(CC=C)ccc2O)c1 [MGN, magnolol]
IC50 ([1]; CAL-27, 24 h): 20.7 ± 1.8 µg/mL (≈ 77.7 µM)
IC50 ([1]; CAL-27, 48 h): 11.9 ± 0.6 µg/mL (≈ 44.7 µM)
IC50 ([1]; CAL-27, 72 h): 5.1 ± 0.6 µg/mL (≈ 19.1 µM)
IC50 ([1]; CAL-27, 96 h): 4 ± 0.8 µg/mL (≈ 15 µM)
AUC(0-inf) [5, 15]: 37.8 ± 16.5 ng·h/mL
AUC(0-t) [5, 15]: 23.1 ± 5.3 ng·h/mL
Cmax [5, 15]: 9.4 ± 3.3 ng/mL
Half-life [5, 15]: 3.8 ± 2.3 h
MRT last [5, 15]: 2.3 ± 0.6 h
Tmax [5, 15]: 0.9 ± 0.7 h
AUC(0-inf) [6, 15]: 182 ± 28.8 ng·h/mL
AUC(0-t) [6, 15]: 176 ± 27.3 ng·h/mL
Cmax [6, 15]: 29.1 ± 10.4 ng/mL
Half-life [6, 15]: 5 ± 1.5 h
MRT last [6, 15]: 5.1 ± 0.6 h
Tmax [6, 15]: 2.2 ± 1.5 h
absolute bioavailability (estimated) [6]: < 2%
IC50 [2]: 7.9 ± 0.4 µg/mL (≈ 29.7 µM)
AUC(0-inf) [8, 16]: 1230 ± 651 ng·h/mL
AUC(0-t) [8, 16]: 1230 ± 650 ng·h/mL
Cmax [8, 16]: 2280 ± 700 ng/mL
Half-life [8, 16]: 1 ± 0.3 h
MRT last [8, 16]: 0.8 ± 0.5 h
clearance [8, 16]: 13.3 mL/min/kg
V ([8]; I.V. 5 mg ME/kg, n=5): 1.0 ± 0.4 L/kg

The remaining lines, values ahead:

AUC(0-inf) (in vivo): 1150 ± 719 ng·h/mL
AUC(0-t) (in vivo): 1150 ± 719 ng·h/mL
Cmax (in vivo): 2400 ± 1040 ng/mL
Half-life (in vivo): 0.7 ± 0.04 h
MRT last (in vivo): 0.6 ± 0.1 h
clearance (in vivo): 20 mL/min/kg
IC50 ([1]; CAL-27, 24 h): 20.8 ± 1.3 µg/mL (≈ 78.1 µM)
IC50 ([1]; CAL-27, 48 h): 12.2 ± 1 µg/mL (≈ 45.8 µM)
IC50 ([1]; CAL-27, 72 h): 6.6 ± 0.6 µg/mL (≈ 24.8 µM)
IC50 ([1]; CAL-27, 96 h): 4.2 ± 0.4 µg/mL (≈ 15.8 µM)
IC50 [2]: 5.5 ± 0.6 µg/mL (≈ 20.7 µM)
Papp A→B at 4 h, 0.05 mg/mL [3]: 13.4 ×10⁻⁶ cm/s
Compound: C=CCc1ccc(O)c(-c2ccc(O)c(CC=C)c2)c1 [HNK, honokiol]

Half-life [4]: 2.2 ± 0.7 h
Tmax [4]: 6 ± 6 min
Compound: C=CCc1ccc(O)c(-c2cc(CC=C)ccc2OS(=O)(=O)O)c1 [MGN_Sulfate]

Reference: publication PMC7604171 (Journal of agricultural and food chemistry, 2020)
